Laboratory results reported in US7527808B2, “Amorphous cefditoren pivoxil composition and process for producing the same” (Meiji Seika Kaisha, Ltd., priority 2001, dated 2009).

What was measured:
[1] = Test 2: thermal analysis, stability against heat by differential scanning calorimeter; assay type: physicochemical; settings: temperature rise rate 10° C./min
From the text: The samples shown in Table 2 were examined for stability against heat with a differential scanning calorimeter (model DSC 3100, manufactured by MAC Science).

[2] = Test 4: dissolution test (Japanese Pharmacopoeia Method 2) in second fluid; assay type: physicochemical; settings: second fluid of the Japanese Pharmacopoeia; dissolved cefditoren pivoxil determined at 272 nm
Protocol: For each sample shown in Table 2, a dissolution test (see The Japanese Pharmacopoeia, Fourteenth Edition, Part I, General Tests “56. Dissolution test, Method 2”) was carried out in a second fluid specified in the Japanese Pharmacopoeia (a fluid prepared by adding 118 mL of a 0.2 mol/L sodium hydroxide reagent solution and water to 250 mL of a 0.2 mol/L potassium dihydogenphosphate reagent solution; the amount of the water being a sufficient amount to bring the total volume of the fluid to 1,000 mL). The fluid with the sample dissolved therein was sampled at fixed intervals of time and was filtered through a glass filter G-4 manufactured by TOYAMA SANGYO Co., Ltd., and the amount of dissolved cefditoren pivoxil was then quantitatively determined at a measuring wavelength of 272 nm with a spectrophotometer (UV-160, manufactured by Shimadzu Seisakusho Ltd.

| exothermic peak in DSC curve (transfer to a crystalline state) [1] | SMILES | dissolvability (dissolution curve of cefditoren pivoxil) [2] |
| --- | --- | --- |
| around 140 °C | CO/N=C(\C(=O)N[C@@H]1C(=O)N2C(C(=O)OCOC(=O)C(C)(C)C)=C(/C=C\c3scnc3C)CS[C@H]12)c1csc(N)n1 [amorphous cefditoren pivoxil, (−)-(6R,7R)-7-[(Z)-2-(2-aminothiazol-4-yl)-2-methoxyiminoacetamido]-3-[(Z)-2-(4-methylthiazol-5-yl)ethenyl]-8-oxo-5-thia-1-azabicyclo[4.2.0]oct-2-ene-2-carboxylic acid 2,2-dimethylpropionyloxymethyl ester] |  |
|  | CO/N=C(\C(=O)N[C@@H]1C(=O)N2C(C(=O)OCOC(=O)C(C)(C)C)=C(/C=C\c3scnc3C)CS[C@H]12)c1csc(N)n1 [crystalline cefditoren pivoxil, (−)-(6R,7R)-7-[(Z)-2-(2-aminothiazol-4-yl)-2-methoxyiminoacetamido]-3-[(Z)-2-(4-methylthiazol-5-yl)ethenyl]-8-oxo-5-thia-1-azabicyclo[4.2.0]oct-2-ene-2-carboxylic acid 2,2-dimethylpropionyloxymethyl ester] | substantially no difference in dissolvability |
